The text below walks through data of patent publication US8586611B2 (priority 2005, dated 2013).

What all share (type): in vivo
The test system of experiment [1] is Phytophthora infestans. Put plainly: whole plant or invertebrate. Conditions: tomato late blight; spray the day before inoculation; compounds without asterisk (not 40 or 10 ppm).
Experiment [2] relates to Phytophthora infestans. The experiment is described as follows: whole plant or invertebrate. Conditions: tomato late blight; spray 17 h after inoculation; compounds without asterisk (not 40 or 10 ppm).
Experiment [3] concerns Erysiphe graminis f. sp. tritici. The experiment is described as follows: Test E: wheat powdery mildew, spray the day before inoculation (disease rating, 100 = 100% disease control). Conditions: spray the day before inoculation, compounds without asterisk (not 40 or 10 ppm). The method, boiled down: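 Protective test: spores of E. graminis f. sp. tritici dusted on wheat seedlings one day after run-off spraying of test suspension (acetone/water with 250 ppm surfactant; 200 ppm = 500 g/ha). Ratings after 7 days in growth chamber at 20° C, 100 = full control, 0 = none, relative to controls.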

The subject of a further experiment is Plasmopara viticola. Put plainly: Test B: grape downy mildew, spray 24 h after inoculation (disease rating, 100 = 100% disease control). Conditions: spray 24 h after inoculation, compounds without asterisk (not 40 or 10 ppm). The method, boiled down: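 This is a curative spray test, applied 24 h after inoculation. Compounds in 50/50 acetone–water with 250 ppm Trem 014 surfactant were sprayed to run-off on P. viticola-infected seedlings, with 200 ppm equating to 500 g/ha. Plants were kept 5 days in a 20 °C growth chamber, then 24 h humid, and scored 0–100 for disease control relative to controls.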

Experiment [4] deals with Pseudoperonospora cubensis. The experiment is described as follows: Test F: cucumber downy mildew, DMSO/acetone/water test suspension, spray the day before inoculation (disease rating, 100 = 100% disease control). Conditions: DMSO/acetone/water suspension, spray the day before inoculation, compounds without asterisk. From the text:
The test compounds were first dissolved in dimethyl sulfoxide (DMSO) in an amount equal to 4% of the final volume and then suspended at the desired concentration (in ppm) in acetone and purified water (30/70 mix by volume). The resulting test suspensions were then used in test F. Spraying a 250 ppm test suspension on the test plants was the equivalent of a rate of 250 g/ha.
The test suspension was sprayed on cucumber seedlings. The following day the seedlings were inoculated with a spore suspension of Pseudoperonospora cubensis (the causal agent of cucumber downy mildew) and incubated in a saturated atmosphere at 20° C. for 24 h, and then moved to a growth chamber at 20° C. for 6 days, after which disease ratings were made.
Results for Tests A-F are given in Table A. In the table, a rating of 100 indicates 100% disease control and a rating of 0 indicates no disease control (relative to the controls). A dash (-) indicates no test results.

`Cc1cc(C(F)(F)F)nn1CC(=O)N1CCC(c2nc(C(=O)N(C)C3CCCc4cc(O)ccc43)cs2)CC1` (stereo not drawn) [compound 190]: the “Test C disease rating (100 = 100% disease control, 0 = no disease control)” value in the experiment on Phytophthora infestans [1] is listed as 100%. In addition, the “Test D disease rating (100 = 100% disease control, 0 = no disease control)” value in the experiment on Phytophthora infestans [2] is given as 99%. Also, in experiment [3], the “Test E disease rating (100 = 100% disease control, 0 = no disease control)” value is reported as 0%. Moreover, in the experiment on Plasmopara viticola, the “Test B disease rating (100 = 100% disease control, 0 = no disease control)” value was 8%. In addition, the “Test F disease rating (100 = 100% disease control, 0 = no disease control)” value in experiment [4] is on record as 93%.

In the case of `Cc1cc(C(F)(F)F)nn1CC(=O)N1CCC(c2nc(C(=O)N(C)C3CCCc4ccccc43)cs2)CC1` (stereo not drawn) [compound 187], the “Test C disease rating (100 = 100% disease control, 0 = no disease control)” value in the experiment with Phytophthora infestans [1] turned out to be 100%. The “Test D disease rating (100 = 100% disease control, 0 = no disease control)” value with Phytophthora infestans [2] was found to be 99%. Besides, in experiment [3], the “Test E disease rating (100 = 100% disease control, 0 = no disease control)” value came out at 0%. Besides, the “Test B disease rating (100 = 100% disease control, 0 = no disease control)” value with Plasmopara viticola was found to be 98%. Also, the “Test F disease rating (100 = 100% disease control, 0 = no disease control)” value in experiment [4] was 93%.

Take `Cc1ccc(C)c(CC(=O)N2CCC(c3nc(C(=O)N(C)C(C)c4ccccn4)cs3)CC2)c1` (stereo not drawn) [compound 94]: the “Test C disease rating (100 = 100% disease control, 0 = no disease control)” value in the experiment on Phytophthora infestans [1] is given as 100%. Also, the “Test D disease rating (100 = 100% disease control, 0 = no disease control)” value in the experiment on Phytophthora infestans [2] is reported as 100%. Also, in experiment [3], the “Test E disease rating (100 = 100% disease control, 0 = no disease control)” value is reported as 0%. For the same compound, the “Test B disease rating (100 = 100% disease control, 0 = no disease control)” value in the experiment with Plasmopara viticola is given as 0%. In addition, the “Test F disease rating (100 = 100% disease control, 0 = no disease control)” value in experiment [4] came to 93%.

Regarding `Cc1nc(CC(=O)N2CCC(c3nc(C(=O)N(C)[C@H](C)c4ccccc4)cs3)CC2)c(C)s1` [compound 92], in the experiment on Phytophthora infestans [1], the “Test C disease rating (100 = 100% disease control, 0 = no disease control)” value was determined as 100%. For the same compound, the “Test D disease rating (100 = 100% disease control, 0 = no disease control)” value in the experiment on Phytophthora infestans [2] was determined as 100%. Moreover, in experiment [3], the “Test E disease rating (100 = 100% disease control, 0 = no disease control)” value was found to be 0%. For the same compound, the “Test B disease rating (100 = 100% disease control, 0 = no disease control)” value in the experiment with Plasmopara viticola amounted to 83%. Moreover, the “Test F disease rating (100 = 100% disease control, 0 = no disease control)” value in experiment [4] is listed as 100%.

As for `Cc1ccc(C)c(CC(=O)N2CCC(c3nc(C(=O)N(C)C(C)(C)Cc4ccc(F)cc4)cs3)CC2)c1` [compound 175], in the experiment with Phytophthora infestans [1], the “Test C disease rating (100 = 100% disease control, 0 = no disease control)” value is on record as 95%. Besides, the “Test D disease rating (100 = 100% disease control, 0 = no disease control)” value in the experiment with Phytophthora infestans [2] was 0%. Also, in experiment [3], the “Test E disease rating (100 = 100% disease control, 0 = no disease control)” value was found to be 0%. For the same compound, in the experiment with Plasmopara viticola, the “Test B disease rating (100 = 100% disease control, 0 = no disease control)” value came out at 93%. For the same compound, in experiment [4], the “Test F disease rating (100 = 100% disease control, 0 = no disease control)” value came out at 43%.

As for `Cc1ccc(C)c(CC(=O)N2CCC(c3nc(C(=O)N(C)C4CCCCC4)cs3)CC2)c1` [compound 174], the “Test C disease rating (100 = 100% disease control, 0 = no disease control)” value with Phytophthora infestans [1] amounted to 100%. Besides, the “Test D disease rating (100 = 100% disease control, 0 = no disease control)” value in the experiment with Phytophthora infestans [2] amounted to 63%. Besides, the “Test E disease rating (100 = 100% disease control, 0 = no disease control)” value in experiment [3] was 0%. The “Test B disease rating (100 = 100% disease control, 0 = no disease control)” value in the experiment with Plasmopara viticola came to 68%. The “Test F disease rating (100 = 100% disease control, 0 = no disease control)” value in experiment [4] worked out at 90%.

`Cc1ccc(C)c(CC(=O)N2CCC(c3nc(C(=O)N(C)[C@H](C)c4ccc(Br)cc4)cs3)CC2)c1` [compound 63]: the “Test C disease rating (100 = 100% disease control, 0 = no disease control)” value in the experiment with Phytophthora infestans [1] is recorded as 100%. Also, the “Test D disease rating (100 = 100% disease control, 0 = no disease control)” value with Phytophthora infestans [2] is on record as 93%. Also, the “Test E disease rating (100 = 100% disease control, 0 = no disease control)” value in experiment [3] came out at 0%. In addition, the “Test B disease rating (100 = 100% disease control, 0 = no disease control)” value in the experiment with Plasmopara viticola is 100%. Also, in experiment [4], the “Test F disease rating (100 = 100% disease control, 0 = no disease control)” value is on record as 99%.

Take `C[C@H](c1ccccc1)N(C)C(=O)c1coc(N2CCN(C(=O)Cc3cccc(Br)c3)CC2)n1` [compound 54]: the “Test C disease rating (100 = 100% disease control, 0 = no disease control)” value in the experiment with Phytophthora infestans [1] is reported as 100%. Moreover, the “Test D disease rating (100 = 100% disease control, 0 = no disease control)” value in the experiment on Phytophthora infestans [2] is given as 69%. Further, in experiment [3], the “Test E disease rating (100 = 100% disease control, 0 = no disease control)” value is on record as 0%. The “Test B disease rating (100 = 100% disease control, 0 = no disease control)” value in the experiment with Plasmopara viticola was determined as 11%. For the same compound, the “Test F disease rating (100 = 100% disease control, 0 = no disease control)” value in experiment [4] is reported as 50%.

In the case of `Cc1ccc(C)c(CC(=O)N2CCC(c3nc(C(=O)N(C)[C@H](C)c4ccc(Cl)cc4)cs3)CC2)c1` [compound 60], the “Test C disease rating (100 = 100% disease control, 0 = no disease control)” value with Phytophthora infestans [1] was 93%. In addition, the “Test D disease rating (100 = 100% disease control, 0 = no disease control)” value with Phytophthora infestans [2] was 42%. Besides, in experiment [3], the “Test E disease rating (100 = 100% disease control, 0 = no disease control)” value stood at 67%. For the same compound, the “Test B disease rating (100 = 100% disease control, 0 = no disease control)” value in the experiment with Plasmopara viticola is recorded as 95%. Also, the “Test F disease rating (100 = 100% disease control, 0 = no disease control)” value in experiment [4] is 47%.
